The supplement of paper PMC7108870

How the values were obtained:
HEK293sieSTAT3(Y640F) [1] = assay: drug sensitivity score (DSS), cytotoxicity CellTox Green (DSS (dimensionless)); higher = more cytotoxic; extreme values may be limits of the assay; settings: 72 h; STAT3 variant: Y640F (constitutively active)
Procedure, shortened: (§1)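 Each value is one representative of two experiments in which HEK293 cells overexpressing wild-type or mutant STAT3 with a STAT3-dependent luciferase reporter were exposed to compounds at 5 concentrations (10-fold dilutions) for 72 hours at 37°C and 5% CO2. Readouts were CellTox Green fluorescence and then CellTiter-Glo luminescence, normalised to negative and positive control wells. The drug sensitivity score was based on the dose-response curve area and computed in Breeze.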

HEK293sieSTAT3(wt) [2] = assay: as above; settings: 72 h; STAT3 variant: wild type
Procedure, shortened: as §1

HEK293sieSTAT3(Y640F) [3] = assay: drug sensitivity score (DSS), viability CellTiter-Glo (DSS (dimensionless)); higher = more growth inhibition; extreme values may be limits of the assay; settings: 72 h; STAT3 variant: Y640F (constitutively active)
Procedure, shortened: as §1

HEK293sieSTAT3(wt) [4] = assay: as above; settings: 72 h; STAT3 variant: wild type
Procedure, shortened: as §1

SMILES	drug sensitivity score (HEK293sieSTAT3(Y640F) [1])	drug sensitivity score (HEK293sieSTAT3(wt) [2])	drug sensitivity score (HEK293sieSTAT3(Y640F) [3])	drug sensitivity score (HEK293sieSTAT3(wt) [4])
O=C(/C=C\n1cnc(-c2cc(C(F)(F)F)cc(C(F)(F)F)c2)n1)NNc1ccccn1 [Verdinexor] (top concentration tested 1000 nM)	5.2	10.5	15.5	17.4
CC[C@]1(O)C[C@@H]2CN(CCc3c([nH]c4ccccc34)[C@@](C(=O)OC)(c3cc4c(cc3OC)N(C)[C@H]3[C@@](O)(C(=O)OC)[C@H](OC(C)=O)[C@]5(CC)C=CCN6CC[C@]43[C@@H]65)C2)C1 [Vinblastine] (top concentration tested 1000 nM)	5.1	19.4	19.8	21.8
CC[C@]1(O)C[C@H]2CN(CCc3c([nH]c4ccccc34)[C@@](C(=O)OC)(c3cc4c(cc3OC)N(C=O)[C@H]3[C@@](O)(C(=O)OC)[C@H](OC(C)=O)[C@]5(CC)C=CCN6CC[C@]43[C@@H]65)C2)C1 [Vincristine] (top concentration tested 1000 nM)	6.72	16.2	21.2	23.6
CCC1=C[C@@H]2CN(C1)Cc1c([nH]c3ccccc13)[C@@](C(=O)OC)(c1cc3c(cc1OC)N(C)[C@H]1[C@@](O)(C(=O)OC)[C@H](OC(C)=O)[C@]4(CC)C=CCN5CC[C@]31[C@@H]54)C2 [Vinorelbine] (top concentration tested 10000 nM)	5.27	19.2	30.6	34
CS(=O)(=O)c1ccc(C(=O)Nc2ccc(Cl)c(-c3ccccn3)c2)c(Cl)c1 [Vismodegib] (top concentration tested 10000 nM)	0	0.14	0.91	0.09
CC[C@@H]1C(=O)N(C)c2cnc(Nc3ccc(C(=O)N[C@H]4CC[C@H](N5CCN(CC6CC6)CC5)CC4)cc3OC)nc2N1C(C)C [Volasertib] (top concentration tested 1000 nM)	12.6	21.4	22.1	21.7
O=C(CCCCCCC(=O)Nc1ccccc1)NO [Vorinostat] (top concentration tested 10000 nM)	2.86	4.68	10.6	9.87
CCn1c(=O)c(-c2cc[nH]n2)cc2c(C)nc(N)nc21 [Voxtalisib] (top concentration tested 10000 nM)	0	3.54	8.35	9.9
Oc1nc(-c2ccc(C(F)(F)F)cc2)nc2c1CSCC2 [XAV-939] (top concentration tested 10000 nM)	0	0	0.17	1.46
O=C(Nc1ccc(-c2ccnc(Nc3ccc(N4CCOCC4)cc3)n2)cc1)C1CCCN1 (stereo unspecified) [XL019] (top concentration tested 10000 nM)	0	0	1.98	2.07
COc1cc2c(Nc3ccc(Cl)c(Cl)c3F)ncnc2cc1OC[C@@H]1C[C@@H]2CN(C)C[C@@H]2C1 [XL-647] (top concentration tested 1000 nM)	0	0	1.72	0.88
COCC[n+]1c2c(n(Cc3cnccn3)c1C)C(=O)c1ccccc1C2=O [YM155] (top concentration tested 10000 nM)	12.8	27.5	30.4	34.7
FC(F)c1nc2ccccc2n1-c1nc(N2CCOCC2)nc(N2CCOCC2)n1 [ZSTK474] (top concentration tested 10000 nM)	0	6.5	12.8	16.6
c1ccc(Cn2c(-c3ccc(OC[C@H](C4CCNCC4)n4c(-c5ccccc5)nc5ccccc54)cc3)nc3ccccc32)cc1 [deltarasin] (top concentration tested 10000 nM)	7.78	8.33	7.04	8.74
